Measured values taken from article PMC4303209, “A novel phosphatidylinositol 3-kinase (PI3K) inhibitor directs a potent FOXO-dependent, p53-independent cell cycle arrest phenotype characterized by the differential induction of a subset of FOXO-regulated genes” (Breast Cancer Research : BCR, 2014).

System: MCF-7 breast cancer cells
Assay: Microarray gene expression analysis (Agilent whole human genome 4 x 44K; compound vs DMSO, LIMMA log2 fold change)
Format: cell-based
Conditions: Apoptosis genes

## Cn1ncc2c(N3CCOCC3)nc(-c3cccc(O)c3)nc21 [ETP-45658]
Gene 23421
  ITGB3BP log2FC: 0.773
Gene 23429
  RYBP log2FC: 0.520
Gene 23493
  HEY2 log2FC: -0.060
Gene 23513
  SCRIB log2FC: -0.165
Gene 23529
  CLCF1 log2FC: -0.993
Gene 23532
  PRAME log2FC: -0.401
Gene 23564
  DDAH2 log2FC: 0.126
Gene 23567
  ZNF346 log2FC: 0.167
Gene 23581
  CASP14 log2FC: -0.095
Gene 23636
  NUP62 log2FC: -0.576
Gene 23645
  PPP1R15A log2FC: 1.011
Gene 23746
  AIPL1 log2FC: -0.252
Gene 23770
  FKBP8 log2FC: -0.132
Gene 23786
  BCL2L13 log2FC: 0.179
Gene 23787
  MTCH1 log2FC: 0.077
Gene 25791
  NGEF log2FC: 0.588
Gene 25803
  SPDEF log2FC: -0.326
Gene 25816
  TNFAIP8 log2FC: 0.706
Gene 25824
  PRDX5 log2FC: -0.074
Gene 25855
  BRMS1 log2FC: -0.580
Gene 25942
  SIN3A log2FC: 0.788
Gene 25994
  HIGD1A log2FC: 0.198
Gene 26135
  SERBP1 log2FC: 0.313
Gene 26155
  NOC2L log2FC: -0.773
Gene 26230
  TIAM2 log2FC: 0.410
Gene 26574
  AATF log2FC: -0.362
Gene 26585
  GREM1 log2FC: -0.311
Gene 26586
  CKAP2 log2FC: 0.829
Gene 26999
  CYFIP2 log2FC: -0.154
Gene 27018
  NGFRAP1 log2FC: 0.134
Gene 27063
  ANKRD1 log2FC: 0.342
Gene 27069
  GHITM log2FC: 0.501
Gene 27113
  BBC3 log2FC: 2.148
Gene 27141
  CIDEB log2FC: -0.076
Gene 27165
  GLS2 log2FC: 0.175
Gene 27242
  TNFRSF21 log2FC: -1.178
Gene 27250
  PDCD4 log2FC: 1.281
Gene 27252
  KLHL20 log2FC: 0.174
Gene 27443
  CECR2 log2FC: -0.568
Gene 28988
  DBNL log2FC: -0.399
Gene 28996
  HIPK2 log2FC: -0.166
Gene 29115
  SAP30BP log2FC: -0.314
Gene 29124
  LGALS13 log2FC: -0.151
Gene 29775
  CARD10 log2FC: -0.324
Gene 29843
  SENP1 log2FC: 0.416
Gene 29844
  TFPT log2FC: -0.708
Gene 29944
  PNMA3 log2FC: 0.559
Gene 29979
  UBQLN1 log2FC: 0.311
Gene 30001
  ERO1L log2FC: 0.255
Gene 30011
  SH3KBP1 log2FC: 0.491
Gene 30818
  KCNIP3 log2FC: 0.159
Gene 50484
  RRM2B log2FC: 0.508
Gene 50486
  G0S2 log2FC: -0.063
Gene 50507
  NOX4 log2FC: -0.318
Gene 50515
  CHST11 log2FC: -0.798
Gene 50649
  ARHGEF4 log2FC: 0.114
Gene 50650
  ARHGEF3 log2FC: 0.584
Gene 51022
  GLRX2 log2FC: -0.287
Gene 51065
  RPS27L log2FC: 0.265
Gene 51074
  APIP log2FC: 0.142
Gene 51079
  NDUFA13 log2FC: -0.190
Gene 51083
  GAL log2FC: -0.531
Gene 51100
  SH3GLB1 log2FC: 0.592
Gene 51107
  APH1A log2FC: -0.202
Gene 51118
  UTP11L log2FC: -0.844
Gene 51124
  IER3IP1 log2FC: 0.463
Gene 51129
  ANGPTL4 log2FC: -0.967
Gene 51147
  ING4 log2FC: 1.465
Gene 51176
  LEF1 log2FC: -0.842
Gene 51283
  BFAR log2FC: 0.564
Gene 51316
  PLAC8 log2FC: -0.141
Gene 51330
  TNFRSF12A log2FC: -0.850
Gene 51378
  ANGPT4 log2FC: -0.106
Gene 51428
  DDX41 log2FC: -0.212
Gene 51454
  GULP1 log2FC: 1.616
Gene 51499
  TRIAP1 log2FC: -0.820
Gene 51530
  ZC3HC1 log2FC: 0.230
Gene 51588
  PIAS4 log2FC: -0.216
Gene 51604
  PIGT log2FC: 0.174
Gene 51616
  TAF9B log2FC: 0.427
Gene 51651
  PTRH2 log2FC: -0.336
Gene 51741
  WWOX log2FC: -0.809
Gene 51804
  SIX4 log2FC: 0.564
Gene 53832
  IL20RA log2FC: 0.097
Gene 54205
  CYCS log2FC: -0.446
Gene 54361
  WNT4 log2FC: -0.709
Gene 54431
  DNAJC10 log2FC: 0.727
Gene 54469
  ZFAND6 log2FC: 0.430
Gene 54507
  ADAMTSL4 log2FC: -0.301
Gene 54541
  DDIT4 log2FC: -0.893
Gene 54556
  ING3 log2FC: 0.777
Gene 54700
  RRN3 log2FC: -0.293
Gene 54806
  AHI1 log2FC: 0.585
Gene 54870
  QRICH1 log2FC: -0.061
Gene 54929
  TMEM161A log2FC: -0.567
Gene 55023
  PHIP log2FC: 1.243
Gene 55031
  USP47 log2FC: 0.762
Gene 55074
  OXR1 log2FC: 0.502
Gene 55075
  UACA log2FC: 0.817
Gene 55081
  IFT57 log2FC: 0.552
Gene 55113
  XKR8 log2FC: 0.287
Gene 55164
  SHQ1 log2FC: -0.250
Gene 55179
  FAIM log2FC: 0.209
Gene 55201
  MAP1S log2FC: -0.375
Gene 55210
  ATAD3A log2FC: -0.394
Gene 55240
  STEAP3 log2FC: -0.569
Gene 55288
  RHOT1 log2FC: 0.620
Gene 55312
  RFK log2FC: 0.519
Gene 55486
  PARL log2FC: -0.133
Gene 55504
  TNFRSF19 log2FC: -0.110
Gene 55749
  CCAR1 log2FC: 0.836
Gene 55795
  PCID2 log2FC: 0.322
Gene 55819
  RNF130 log2FC: 0.142
Gene 55840
  EAF2 log2FC: 0.438
Gene 55851
  PSENEN log2FC: -0.304
Gene 55973
  BCAP29 log2FC: 0.449
Gene 56159
  TEX11 log2FC: -0.066
Gene 56259
  CTNNBL1 log2FC: -0.141
Gene 56616
  DIABLO log2FC: -0.193
Gene 56624
  ASAH2 log2FC: -0.191
Gene 56658
  TRIM39 log2FC: -0.084
Gene 56751
  BARHL1 log2FC: -0.269
Gene 56776
  FMN2 log2FC: 0.105
Gene 56848
  SPHK2 log2FC: -0.628
Gene 56892
  C8orf4 log2FC: -0.080
Gene 56917
  MEIS3 log2FC: -0.061
Gene 56940
  DUSP22 log2FC: 0.419
Gene 57019
  CIAPIN1 log2FC: -0.388
Gene 57060
  PCBP4 log2FC: -0.519
Gene 57099
  AVEN log2FC: -0.627
Gene 57118
  CAMK1D log2FC: -0.141
Gene 57142
  RTN4 log2FC: 0.129
Gene 57144
  PAK7 log2FC: 0.396
Gene 57448
  BIRC6 log2FC: 0.155
Gene 57551
  TAOK1 log2FC: 0.386
Gene 57556
  SEMA6A log2FC: -0.108
Gene 57630
  SH3RF1 log2FC: -0.399
Gene 57646
  USP28 log2FC: 0.268
Gene 57678
  GPAM log2FC: 0.310
Gene 57680
  CHD8 log2FC: -0.199
Gene 57761
  TRIB3 log2FC: 0.343
Gene 58157
  NGB log2FC: -0.410
Gene 58517
  RBM25 log2FC: 0.406
Gene 60485
  SAV1 log2FC: 0.676
Gene 60675
  PROK2 log2FC: -0.050
Gene 63916
  ELMO2 log2FC: 0.581
Gene 63924
  CIDEC log2FC: 0.346
Gene 63979
  FIGNL1 log2FC: -0.206
Gene 64065
  PERP log2FC: 0.653
Gene 64112
  MOAP1 log2FC: 1.318
Gene 64121
  RRAGC log2FC: 1.860
Gene 64135
  IFIH1 log2FC: 0.885
Gene 64393
  ZMAT3 log2FC: -0.105
Gene 64422
  ATG3 log2FC: 0.283
Gene 64426
  SUDS3 log2FC: -0.126
Gene 64780
  MICAL1 log2FC: -0.454
Gene 64857
  PLEKHG2 log2FC: -0.832
